Like-named read-outs stand apart in the source and are kept apart here.
Columns and labels:
[1] = biological target: T1, aminopeptidase N (L5006-25UN, Sigma) (Sus scrofa, UniProt P15145)
T1 sequence (P15145 1-963): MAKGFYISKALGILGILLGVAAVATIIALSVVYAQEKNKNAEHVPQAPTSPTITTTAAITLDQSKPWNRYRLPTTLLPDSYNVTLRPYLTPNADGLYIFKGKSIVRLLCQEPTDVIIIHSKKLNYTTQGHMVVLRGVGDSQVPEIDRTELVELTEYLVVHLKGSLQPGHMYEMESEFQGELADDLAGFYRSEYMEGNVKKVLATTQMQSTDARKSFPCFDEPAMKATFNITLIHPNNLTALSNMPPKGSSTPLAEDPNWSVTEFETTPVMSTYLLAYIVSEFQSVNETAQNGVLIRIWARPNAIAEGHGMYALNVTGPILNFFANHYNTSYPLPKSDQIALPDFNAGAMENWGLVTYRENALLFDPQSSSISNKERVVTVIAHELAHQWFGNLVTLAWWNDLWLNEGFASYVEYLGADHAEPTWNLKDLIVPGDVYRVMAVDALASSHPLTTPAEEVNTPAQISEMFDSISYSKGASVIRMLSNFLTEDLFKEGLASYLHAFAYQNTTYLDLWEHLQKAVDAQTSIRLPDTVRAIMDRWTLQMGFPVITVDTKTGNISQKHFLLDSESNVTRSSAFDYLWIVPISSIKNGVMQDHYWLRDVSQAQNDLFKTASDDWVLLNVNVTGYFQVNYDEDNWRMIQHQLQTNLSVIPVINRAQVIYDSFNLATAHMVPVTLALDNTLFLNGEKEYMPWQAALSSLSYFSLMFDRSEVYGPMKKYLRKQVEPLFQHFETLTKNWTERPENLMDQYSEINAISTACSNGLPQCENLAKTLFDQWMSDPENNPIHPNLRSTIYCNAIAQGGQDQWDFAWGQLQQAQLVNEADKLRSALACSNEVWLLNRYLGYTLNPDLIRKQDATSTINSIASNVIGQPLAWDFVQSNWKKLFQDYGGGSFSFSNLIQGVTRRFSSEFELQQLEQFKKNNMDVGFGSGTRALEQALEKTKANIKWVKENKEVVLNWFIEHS
Description: Biotechnol., 1995, 5(1):36-40” is followed to analyze the bioactivity of 3-amino-2-hydroxy-4-phenylbutanoyl-valyl-isoleucine, taking bestatin, a typical APN inhibitor used in leukemia treatment, as positive control.
The procedure for the assay is as follows: apply 100 μl (1 mg/ml in a 0.1M Tris-HCl, pH 7.0) of substrate (L-leucine-p-nitroanilide) to a 96-well plate, mix with 20 µl (0.1M Tris-HCl, pH 7.0) of the compound to be assayed of different concentration (0.86, 1.71, 2.57, 4.29, 8.57 μg/ml). Incubate at 37° C. for 3 min, followed by addition of 20 μl (2 mU, 0.1M Tris-HCl, pH 7.0) aminopeptidase N (L5006-25UN, Sigma), incubate at 37° C. for 30 min. Read the absorbance at 405 nm.
The inhibition rate is presented as:
Inhibition rate=(A−B)/A*100%
wherein: • A is the absorbance tested without inhibitor in the system. • B is the absorbance detected in the system containing different concentration of the compound. Use 0.1M Tris-HCl (pH 7.0) to normalize the buffer.

[2] = Solubility of the purified product in solvents; assay type: physicochemical
Description: The broth is harvested and placed at 4° C. overnight. Remove the precipitate by centrifugation at 4000 rpm, 4° C., for 30 min. The supernatant is subject to macroporous resin, which is selected from: XAD-1600, SP850, or JD-1, by either static or dynamic mode. The resin is then eluted with double volume of purified water, 10%, 30%, 50%, 75%, and 100% of ethanol. Collect the fraction of the 50% elute and concentrate it under reduced pressure at 40° C. Dilute the concentrate by 10 fold with 30% acetonitrile and centrifuge at 12000 rpm for 10 min. Load 15-25 ml of the supernatant to a column for preparative chromatography (Biotage Si 25+M 1603-2, USA) at room temperature. Elute the column with 30% acetonitrile at flow rate of 3-5 ml/min, and collect the fraction of 200-400 ml. The collected elute is then concentrate under reduced pressure at 40° C., and the concentrate is subject to preparative HPLC by DIONEXP680 system or Agilent 1100 DAD system. The fraction containing target compound is concentrated and dried under reduced pressure at 40° C., and a purified product is obtained. […]

[3] = read-out: Inhibition Rate against APN (IR)

`CC(C)C[C@H](NC(=O)[C@@H](O)[C@H](N)Cc1ccccc1)C(=O)O` [positive control, bestatin, reference compound] gave an inhibition at 0.86 µg/mL [1, 3] of 41.6%, an inhibition at 1.71 µg/mL [1, 3] of 44.4% and an inhibition at 2.57 µg/mL [1, 3] of 47.1%. The inhibition at 4.29 µg/mL [1, 3] was 52.6% and the inhibition at 8.57 µg/mL [1, 3] was 66.5%.
In the case of `CC[C@H](C)[C@H](NC(=O)[C@@H](NC(=O)C(O)C(N)Cc1ccccc1)C(C)C)C(=O)O` (stereo partly drawn) [the compound], the solubility ([2]; in chloroform) was “insoluble”, the solubility ([2]; in methanol, ethanol, water and acetonitrile) was “soluble” and the “Inhibition Rate against APN (IR)” value ([1]; concentration 0.86 μg/ml) was 42.02%. For the same molecule, the “Inhibition Rate against APN (IR)” value ([1]; concentration 1.71 μg/ml) was 51.40%, the “Inhibition Rate against APN (IR)” value ([1]; concentration 2.57 μg/ml) was 65.14% and the “Inhibition Rate against APN (IR)” value ([1]; concentration 4.29 μg/ml) was 70.79%. For the same molecule, the “Inhibition Rate against APN (IR)” value ([1]; concentration 8.57 μg/ml) was 77.91%.
